In data set [1] the test system is Methicillin Resistant Staphylococcus aureus MRSA-32. Description: In-vitro MIC test (agar dilution), MRSA-32. The class given is cell-based. The following applies: Mueller Hinton agar, 24 hrs at 35° C.; for MIC: Staphylococcus aureus, MRSA, read-out: Minimum Inhibitory Concentrations (MIC) MRSA-32. An excerpt: (§1) The test methods used for verifying the antimicrobial action of compound within the scope of this invention are essentially the same as those described in PCT WO 95/25106, U.S. Pat. No. 5,668,286 and EP 0 750, 618 B1, with the difference that the strains of the organisms used for the MIC determinations in these patents and applications are Staphylococcus aureus ATCC 25923, Staphylococcus epidermidis ATCC 12828, Streptococcus pyogenes ATCC 19615.
(§2) The in-vitro MIC methods of test compounds were determined essentially as described in PCT WO 95/25106, U.S. Pat. No. 5,668,286 and EP 0 750 618 B1.
(§3) Overnight grown cultures of S. aureus organisms in Tryptic Soya broth were diluted in Mueller Hinton Broth to give optical density matching with MacFarland tube 0.5 standard. Cultures were further diluted 1:10 in Mueller Hinton broth. Using Denley's mutipoint inoculator, 10^4 cells were deposited on Mueller Hinton agar (Difco) containing range of 2 fold dilutions of test compounds. These plates were incubated for 24 hrs at 35° C. and MIC results recorded. MIC is defined as minimum drug concentration that inhibits test organisms. For determining MIC of test compounds against Streptococcus pneumoniae, Mueller Hinton agar containing 5% sheep blood was employed.
On the technique in general: Agar dilution tests growth on a series of plates holding different concentrations.

Data set [2] relates to Enterococcus faecalis ATCC 29212. Description: In-vitro MIC test (agar dilution), E. faecalis. The class given is cell-based. As to conditions: ATCC29212, Mueller Hinton agar, 24 hrs at 35° C., read-out: Minimum Inhibitory Concentrations (MIC) E. faecalis.
Source text: as §1, §2, §3

Data set [3] relates to MRSA 32. Description: Murine assay procedure (systemic MRSA 32 infection, oral treatment). It counts as in vivo, swiss mice. As to conditions: Staphylococcus aureus; oral administration, doses 1 hr and 4 hrs after infection; MRSA 32 infected mice; percentage survival on Day 7. Here is the method:
Oxazolidinone new chemical entities (NCEs) were evaluated for their in vivo efficacy in a murine infection caused by multi-drug resistant, methicillin resistant Staphylococcus aureus strain, referred to as MRSA 32, a clinical isolate obtained from a hospitalised patient. The procedure used for the murine assay is as follows:
Four weeks old swiss mice of 18-22 gm body weight were infected with MRSA 32 strain suspended in 5% Hog gastric Mucin. The infecting dose of bacteria was set at 1-2×10^8 CFU/animal. The infecting dose was administered in 0.5 ml volume injected into peritonial cavity of mice. The treatment with oxazolidinone NCEs was started one hour after infection by administering 100-200 μl of the suspensions of oxazolidinone compounds in 5% Tween 80 by oral gavage. A repeat dose was similarly administered 3 hrs later. Each oxazolidinone NCE was tested at 2-3 different dosages in the range of 2.5 mg/kg to 20 mg/kg. In each dose group 6 mice were included. As an infection control group 12 mice were infected with MRSA 32 strain without giving any treatment. Normally untreated infected mice die within 24 hrs. due to the systemic spread of infection through out the animal body. […] For compounds affording protection of MRSA infected mice, ED50 dosages were calculated on the basis of percentage survival on Day 7 after infection.
The in-vivo ED50 values using the test compounds were determined essentially by the method as described in PCT WO 95/25106, U.S. Pat. No. 5,668,286 and EP 0 750 618 B1.

Data set [4] relates to Streptococcus pneumoniae ATCC 49619. Description: In-vitro MIC test (agar dilution, 5% sheep blood), S. pneumoniae. The following applies: ATCC49619, Mueller Hinton agar containing 5% sheep blood, read-out: Minimum Inhibitory Concentrations (MIC) S. pneumoniae. It counts as cell-based.
Source text: as §1, §2, §3

The nature of data set [5]: Pharmacokinetic study, single oral dose in beagle dog. It counts as in vivo. The following applies: serum, single oral dose 5 mg/kg p.o., Compound No. 4 and linezolid in 5% Tween, other compounds in cyclodextrin; for AUC(0-t): read-out: AUC (0-24 hr); for concentration at 12 hr: read-out: C-12 hr. Here is the method:
Oral (5 mg/kg) and intravenous (5 mg/kg bolus) pharmacokinetic studies were done in dog. Blood samples were collected at time points of 0, 0.08 (not for oral), 0.25, 0.50, 1.0, 1.5, 2.0, 3.0, 4.0, 5.0, 6.0, 8.0, 10.0, 12.0 and 24.0 hours. To facilitate i.v. dosing and collection of blood samples, the dogs were implanted with cannula in cephalic vein. Serum obtained from blood samples was used for HPLC-based analysis.
(§4) Serum samples were extracted by solid phase extraction technique using Water's OASIS HLB cartridges. An HPLC-Diode array detection system was used for analysis. Prepared samples were chromatographed on a YMC-AM reversed phase column (150×4.6 mm ID; 5 μm) using an isocratic mobile phase acetate buffer (50 mmol ammonium acetate pH 6.6) acetonitrile, 66:34% v/v (for a representative compound of the invention, 68:32% v/v for compound Nos. 30, 3, 7 and 11 of U.S. Pat. No. 5,668,286, and 75:25% v/v for linezolid) at a flow rate of 1 ml/min, measured at λmax 254 nm. Independently prepared analytical standards and quality control samples were analyzed with each set of unknown samples.
The pharmacokinetics of a representative compound of the invention following single oral dose administration of the compound in beagle dog is shown in Table 2.

Data set [6] is described as follows: Pharmacokinetic study, single I.V. bolus dose in beagle dog. It counts as in vivo. As to conditions: iv, single I.V. bolus dose 15 mg/kg (table title), Compound No. 4 and linezolid in 5% Tween, other compounds in cyclodextrin, serum; for concentration at 12 hr: read-out: C-12 hr; for AUC(0-t): read-out: AUC (0-24 hr). As for the experimental part: Blood samples were collected at time points of 0, 0.08 (not for oral), 0.25, 0.50, 1.0, 1.5, 2.0, 3.0, 4.0, 5.0, 6.0, 8.0, 10.0, 12.0 and 24.0 hours. To facilitate i.v. dosing and collection of blood samples, the dogs were implanted with cannula in cephalic vein. Serum obtained from blood samples was used for HPLC-based analysis.
as §4
The pharmacokinetics of a representative compound of the invention following single I.V. bolus dose administration of the compound in beagle dog is shown in Table 3.

Values after ≈ are worked out from the molar mass of the structure shown.

In the case of `CC(=O)NC[C@H]1CN(c2ccc(N3CCC(CC#N)CC3)cc2)C(=O)O1` [Compound 2, (S)-N-{3-[4-(4-cyanomethyl-piperidin-1-yl)-phenyl]-2-oxo-oxazolidin-5-ylmethyl}-acetamide], the MIC in data set [1], in data set [2] and in data set [4] was 2 µg/mL (≈ 5.61 µM) each time. Besides, the ED50 in data set [3] came to 20 mg/kg.
Turning to `CC(=O)NC[C@H]1CN(c2ccc(N3CCC4(CC3)OCCO4)c(F)c2)C(=O)O1` [U.S. Pat. No. 5,668,286 (No. 30), (S)-N-{3-[4-(1,4-dioxa-8-aza-spiro[4.5]dec-8-yl)-3-fluoro-phenyl]-2-oxo-oxazolidin-5-ylmethyl}-acetamide], in data set [5], the half-life was 6.68 h, the AUC(0-t) came out at 47200 ng·h/mL, the concentration peaked (Cmax) at 5310 ng/mL and the concentration at 12 hr amounted to 1840 ng/mL. In data set [6], the Cmax was found to be 7640 ng/mL, the concentration at 12 hr amounted to 1190 ng/mL, the half-life is 6.71 h and the AUC(0-t) was 45100 ng·h/mL.
Compound `CC(=O)NC[C@H]1CN(c2ccc(N3CCC(C(C)C#N)CC3)c(F)c2)C(=O)O1` (stereo partly drawn) [Compound 14, (S)-N-{3-[4-(4-(1-cyanoethyl)-piperidin-1-yl)-3-fluoro-phenyl]-2-oxo-oxazolidin-5-ylmethyl}-acetamide] displayed a melting point of 147 to 148 °C. Also, in data set [1], the MIC stood at 2 µg/mL (≈ 5.15 µM). Also, in data set [2], the MIC amounted to 2 µg/mL (≈ 5.15 µM). For the same compound, the MIC in data set [4] worked out at 2 µg/mL (≈ 5.15 µM).
Compound `CC(=O)NC[C@H]1CN(c2ccc(N3CCC(CC#N)C(C)C3)c(F)c2)C(=O)O1` (stereo partly drawn) [Compound 12, (S)-N-{3-[4-((4-cyanomethyl)-3-methyl-piperidin-1-yl)-3-fluoro-phenyl]-2-oxo-oxazolidin-5-ylmethyl}-acetamide] returned a melting point of 148 to 149 °C. In addition, the MIC in data set [1] was determined as 2 µg/mL (≈ 5.15 µM). Also, the MIC in data set [2] turned out to be 2 µg/mL (≈ 5.15 µM). Besides, the MIC in data set [4] was 2 µg/mL (≈ 5.15 µM).
As for `N#CCC1CCN(c2ccc(N3C[C@H](CNC(=O)C(F)(F)F)OC3=O)cc2F)CC1` [Compound 8, (S)-N-{3-[4-(4-cyanomethyl-piperidin-1-yl)-3-fluoro-phenyl]-2-oxo-oxazolidin-5-ylmethyl}-trifluoroacetamide], the results for the MIC in data set [1], in data set [2] and in data set [4] were 4 µg/mL (≈ 9.34 µM), 8 µg/mL (≈ 18.7 µM) and 2 µg/mL (≈ 4.67 µM), respectively.
For the compound `CCC(C#N)C1CCN(c2ccc(N3C[C@H](CNC(C)=O)OC3=O)cc2F)CC1` (stereo partly drawn) [Compound 15, (S)-N-{3-[4-(4-(1-cyanopropyl)-piperidin-1-yl)-3-fluoro-phenyl]-2-oxo-oxazolidin-5-ylmethyl}-acetamide], the melting point was 185 to 186 °C. Moreover, the MIC in data set [1] turned out to be 4 µg/mL (≈ 9.94 µM). Also, the MIC in data set [2] was determined as 4 µg/mL (≈ 9.94 µM). Besides, in data set [4], the MIC amounted to 2 µg/mL (≈ 4.97 µM).
As to `CC(=O)NC[C@H]1CN(c2ccc(N3CCC(C(C#N)C#N)CC3)c(F)c2)C(=O)O1` [Compound 19, (S)-N-{3-[4-(4-(1,1-dicyanomethyl)-piperidin-1-yl)-3-fluoro-phenyl]-2-oxo-oxazolidin-5-ylmethyl}-acetamide], the melting point fell in the range of 223 to 225 °C. Also, the MIC in data set [1] worked out at 2 µg/mL (≈ 5.01 µM). Further, the MIC in data set [2] was determined as 2 µg/mL (≈ 5.01 µM). Further, in data set [4], the MIC was found to be 1 µg/mL (≈ 2.5 µM).
As for `CC(=O)NC[C@H]1CN(c2ccc(N3CCC(=NO)CC3)c(F)c2)C(=O)O1` [U.S. Pat. No. 5,668,286 (No. 11), (S)-N-{3-[3-fluoro-4-(4-hydroxyimino-piperidin-1-yl)-phenyl]-2-oxo-oxazolidin-5-ylmethyl}-acetamide], the concentration at 12 hr in data set [5] was found to be 0 ng/mL. Further, in data set [6], the concentration peaked (Cmax) at 4150 ng/mL, the concentration at 12 hr amounted to 0 ng/mL, the half-life was 0.16 h and the AUC(0-t) amounted to 1320 ng·h/mL.
The compound `CCCC(C#N)C1CCN(c2ccc(N3C[C@H](CNC(C)=O)OC3=O)cc2F)CC1` (stereo partly drawn) [Compound 16, (S)-N-{3-[4-(4-(1-cyanobutyl)-piperidin-1-yl)-3-fluoro-phenyl]-2-oxo-oxazolidin-5-ylmethyl}-acetamide] came in with a melting point of 180 to 182 °C. For the same compound, the MIC in data set [1] came out at 4 µg/mL (≈ 9.6 µM). In addition, the MIC in data set [2] was determined as 4 µg/mL (≈ 9.6 µM). In addition, the MIC in data set [4] was 4 µg/mL (≈ 9.6 µM).
Turning to `CC(C)COC(=O)NC[C@H]1CN(c2ccc(N3CCC(CC#N)CC3)c(F)c2)C(=O)O1` [Compound 10, (S)-N-{3-[4-(4-cyanomethyl-piperidin-1-yl)-3-fluoro-phenyl]-2-oxo-oxazolidin-5-ylmethyl}-isobutylcarbamate], the “Minimum Inhibitory Concentrations (MIC) MRSA-32” value in data set [1] was over 16.0 µg/mL.
Consider `CC(=O)NC[C@H]1CN(c2ccc(N3CCC(=O)CC3)c(F)c2)C(=O)O1` [U.S. Pat. No. 5,668,286 (No. 7), (S)-N-{3-[3-fluoro-4-(4-oxo-piperidin-1-yl)-phenyl]-2-oxo-oxazolidin-5-ylmethyl}-acetamide], for which the concentration at 12 hr in data set [5] and in data set [6] was 0 ng/mL each time.
Take `CC(=O)NC[C@H]1CN(c2ccc(N3CCC(C(C#N)C(=O)O)CC3)c(F)c2)C(=O)O1` (stereo partly drawn) [Compound 18, (S)-N-{3-[4-(4-(1-cyano-1-hydroxycarbonyl)-piperidin-1-yl)-3-fluoro-phenyl]-2-oxo-oxazolidin-5-ylmethyl}-acetamide]: the melting point was 198 to 200 °C.
For the compound `CC(=O)NC[C@H]1CN(c2ccc(N3CCC(O)CC3)c(F)c2)C(=O)O1` [U.S. Pat. No. 5,668,286 (No. 3), (S)-N-{3-[3-fluoro-4-(4-hydroxy-piperidin-1-yl)-phenyl]-2-oxo-oxazolidin-5-ylmethyl}-acetamide], in data set [5], the half-life is 1.37 h, the AUC(0-t) amounted to 2740 ng·h/mL, the concentration peaked (Cmax) at 1520 ng/mL and the concentration at 12 hr stood at 0 ng/mL. Further, in data set [6], the Cmax was determined as 6190 ng/mL, the concentration at 12 hr worked out at 0 ng/mL, the half-life was 0.98 h and the AUC(0-t) came to 7530 ng·h/mL.

The term ED50 denotes the dose that gives a 50% effect, or the effect in half of the subjects. As a reminder, the half-life is how long it takes for the measured level to halve. The low end stands for fast loss, the high end for slow loss. Usually Cmax stands for the peak of the concentration-time curve. As a reminder, the melting point is the temperature, or range, at which the solid turns liquid.
